Assay results reported in ChEMBL document CHEMBL1156420, “In vitro efficacy, resistance selection, and structural modeling studies implicate the malarial parasite apicoplast as the target of azithromycin” (J Biol Chem, 2007).

Legend:
Format in all cases: functional, organism-based
Plasmodium falciparum [1] = test: Antimalarial activity after 48 hrs against Plasmodium falciparum 7G8 by [3H]hypoxanthine uptake
Plasmodium falciparum [2] = test: Antimalarial activity after 96 hrs against Plasmodium falciparum Dd2 by [3H]hypoxanthine uptake
Plasmodium falciparum [3] = test: Antimalarial activity after 48 hrs against Plasmodium falciparum Dd2 by [3H]hypoxanthine uptake
Plasmodium falciparum [4] = test: Antimalarial activity after 48 hrs against Plasmodium falciparum GCO3 by [3H]hypoxanthine uptake
Plasmodium falciparum [5] = test: Antimalarial activity after 96hrs against Plasmodium falciparum 7G8 by [3H]hypoxanthine uptake
Plasmodium falciparum [6] = test: Antimalarial activity after 96 hrs against Plasmodium falciparum GCO3 by [3H]hypoxanthine uptake
Plasmodium falciparum [7] = test: Antimalarial activity after 96hrs against Plasmodium falciparum GCO3 C2 mutant CRT/MDR1 by [3H]hypoxanthine uptake
Plasmodium falciparum [8] = test: Antimalarial activity after 96 hrs against Plasmodium falciparum GCO3 C4 mutant CRT/MDR1 by [3H]hypoxanthine uptake
Plasmodium falciparum [9] = test: Antimalarial activity after 96 hrs against Plasmodium falciparum GCO3 C6 mutant CRT/MDR1 by [3H]hypoxanthine uptake
Plasmodium falciparum [10] = test: Antimalarial activity after 96 hrs against Plasmodium falciparum GCO3 SDD mutant CRT/MDR1 by [3H]hypoxanthine uptake
Plasmodium falciparum [11] = test: Antimalarial activity after 96 hrs against Plasmodium falciparum GCO3 SND mutant CRT/MDR1 by [3H]hypoxanthine uptake
Plasmodium falciparum [12] = test: Antimalarial activity after 96 hrs against Plasmodium falciparum GCO3 CDY mutant CRT/MDR1 by [3H]hypoxanthine uptake
Plasmodium falciparum [13] = test: Antimalarial activity after 96 hrs against Plasmodium falciparum 3BA6 by [3H]hypoxanthine uptake
Plasmodium falciparum [14] = test: Antimalarial activity against Plasmodium falciparum 3BA6 SDD with CRT and MDR1 mutation after 96 hrs in [3H]hypoxanthine uptake; details: 3BA6, MDR1
Plasmodium falciparum [15] = test: Antimalarial activity after 96 hrs against Plasmodium falciparum 3BA6 SND mutant CRT/MDR1 by [3H]hypoxanthine uptake; details: 3BA6, MDR1
Plasmodium falciparum [16] = test: Antimalarial activity after 96 hrs against Plasmodium falciparum 3BA6 CDY mutant CRT/MDR1 by [3H]hypoxanthine uptake; details: 3BA6, MDR1
Plasmodium falciparum [17] = test: Antimalarial activity after 96 hrs against azithromycin-resistant Plasmodium falciparum Dd2 by [3H]hypoxanthine uptake
Plasmodium falciparum [18] = test: Antimalarial activity after 96 hrs against azithromycin-resistant Plasmodium falciparum 7G8 by [3H]hypoxanthine uptake
Plasmodium falciparum [19] = test: Antimalarial activity after 96 hrs against Plasmodium falciparum 7G8 C1 mutant CRT/MDR1 by [3H]hypoxanthine uptake; details: 7G8, MDR1
Plasmodium falciparum [20] = test: Antimalarial activity after 96 hrs against Plasmodium falciparum Dd2 C1 mutant CRT/MDR1 by [3H]hypoxanthine uptake
Plasmodium falciparum [21] = test: Antimalarial activity after 96 hrs against Plasmodium falciparum Dd2 T76K1 mutant CRT/MDR1 by [3H]hypoxanthine uptake
Plasmodium falciparum [22] = test: Antimalarial activity after 96 hrs against Plasmodium falciparum 7G8 T76K1 mutant CRT/MDR1 by [3H]hypoxanthine uptake; details: 7G8, MDR1

Structure (SMILES) | IC50 (Plasmodium falciparum [1]) [nM] | IC50 (Plasmodium falciparum [2]) [nM] | IC50 (Plasmodium falciparum [3]) [nM] | IC50 (Plasmodium falciparum [4]) [nM] | IC50 (Plasmodium falciparum [5]) [nM] | IC50 (Plasmodium falciparum [6]) [nM] | IC50 (Plasmodium falciparum [17]) [nM] | IC50 (Plasmodium falciparum [18]) [nM] | other results
Oc1cc(Cl)ccc1Oc1ccc(Cl)cc1Cl [TRICLOSAN] | 774 | 4190 | 6260 | 2710 | 424 | 1530 |  |  | 
CC[C@H]1OC(=O)[C@H](C)[C@@H](O[C@H]2C[C@@](C)(OC)[C@@H](O)[C@H](C)O2)[C@H](C)[C@@H](O[C@@H]2O[C@H](C)C[C@H](N(C)C)[C@H]2O)[C@](C)(O)C[C@@H](C)CN(C)[C@H](C)[C@@H](O)[C@]1(C)O [AZITHROMYCIN] | 15700 | 103 | 3460 | 22600 | 228 | 43.3 | 1940 | 3970 | IC50 (Plasmodium falciparum [7]): 48 nM; IC50 (Plasmodium falciparum [8]): 66.7 nM; IC50 (Plasmodium falciparum [9]): 76.7 nM; IC50 (Plasmodium falciparum [10]): 63.3 nM; IC50 (Plasmodium falciparum [11]): 47.8 nM; IC50 (Plasmodium falciparum [12]): 70.2 nM; IC50 (Plasmodium falciparum [13]): 180 nM; IC50 (Plasmodium falciparum [14]): 155 nM; IC50 (Plasmodium falciparum [15]): 158 nM; IC50 (Plasmodium falciparum [16]): 194 nM; IC50 (Plasmodium falciparum [19]): 142 nM; IC50 (Plasmodium falciparum [20]): 95.7 nM; IC50 (Plasmodium falciparum [21]): 122 nM; IC50 (Plasmodium falciparum [22]): 115 nM
CN(C)[C@@H]1C(O)=C(C(N)=O)C(=O)[C@@]2(O)C(O)=C3C(=O)c4c(O)cccc4[C@@](C)(O)[C@H]3C[C@@H]12 [TETRACYCLINE] |  | 397 |  |  | 697 |  | 324 | 365 | 
C[C@H]1c2cccc(O)c2C(=O)C2=C(O)[C@]3(O)C(=O)C(C(N)=O)=C(O)[C@@H](N(C)C)[C@@H]3[C@@H](O)[C@@H]21 [DOXYCYCLINE] |  | 432 |  |  | 1440 |  | 302 | 603 | 
CC[C@H]1OC(=O)[C@H](C)[C@@H](O[C@H]2C[C@@](C)(OC)[C@@H](O)[C@H](C)O2)[C@H](C)[C@@H](O[C@@H]2O[C@H](C)C[C@H](N(C)C)[C@H]2O)[C@](C)(O)C[C@@H](C)C(=O)[C@H](C)[C@@H](O)[C@]1(C)O [ERYTHROMYCIN] |  | 9400 |  |  | 34700 |  | 20300 | 39500 | 
C=C(NC(=O)C(=C)NC(=O)c1csc(C2=N[C@@H]3c4csc(n4)[C@H]4NC(=O)c5csc(n5)[C@H]([C@](C)(O)[C@@H](C)O)NC(=O)[C@H]5CSC(=N5)/C(=C/C)NC(=O)[C@H]([C@@H](C)O)NC(=O)c5csc(n5)[C@]3(CC2)NC(=O)[C@H](C)NC(=O)C(=C)NC(=O)[C@H](C)NC(=O)[C@H]([C@@H](C)CC)N[C@@H]2C=Cc3c([C@H](C)O)cc(nc3[C@H]2O)C(=O)O[C@@H]4C)n1)C(N)=O [THIOSTREPTON] | 688 | 292 | 2110 | 2280 | 555 | 916 | 175 | 217 | 
